Measured values taken from US20180221319A1, “METHODS OF TREATING SEIZURE DISORDERS AND PRADER-WILLI SYNDROME” (Ovid Therapeutics Inc., priority 2017, published 2018).

Columns and labels:
[1] = plasma pharmacokinetics (elimination half-life, Cmax, AUC versus dose); settings: dose range of 5 mg-500 mg
Source text: (§1) “PK” refers to the pharmacokinetic profile. Cmax is defined as the highest plasma drug concentration estimated during an experiment (ng/ml). Tmax is defined as the time when Cmax is estimated (min). AUC0-∞ is the total area under the plasma drug concentration-time curve, from drug administration until the drug is eliminated (ng·hr/ml or g*hr/ml). The area under the curve is governed by clearance. Clearance is defined as the volume of blood or plasma that is totally cleared of its content of drug per unit time (ml/min).

in vivo = settings: plasma
Source text: as §1

N[C@H]1C[C@@H](C(=O)O)CC1=C(F)F
AUCs dose proportionality [1]: greater than proportional increase | Cmax dose proportionality [1]: increases in a dose proportional manner | half-life (in vivo): 4 to 6 h
